Results taken from the NIST ThermoML archive (doi:10.1021/je300530z).
Numbers after ± are expanded uncertainties.

Experiments:
[1] = 100 kPa, Liquid, Vibrating tube method
[2] = wn = mass fraction of the nth substance listed; conditions: Liquid, Vibrating tube method

CN(CCO)CCO [N-methyldiethanolamine]
[1]
Conditions | mass density [kg/m3]
293.15 K | 1039.9 ± 0.27
303.15 K | 1032.4 ± 0.26
313.15 K | 1024.9 ± 0.26
323.15 K | 1017.2 ± 0.25
333.15 K | 1009.5 ± 0.25
343.15 K | 1001.7 ± 0.24
353.15 K | 993.9 ± 0.24
363.15 K | 986 ± 0.24
373.15 K | 978.28 ± 0.24
383.15 K | 970.22 ± 0.24
393.15 K | 962.03 ± 0.24
403.15 K | 953.71 ± 0.24
413.15 K | 945.29 ± 0.24
423.15 K | 936.81 ± 0.25

CN(CCO)CCO [N-methyldiethanolamine] + O
mass density [kg/m3], [2]
Conditions | w1 = 0.5 | w1 = 0.6 | w1 = 0.7 | w1 = 0.8
293.15 K, 101 kPa | 1045.8 ± 2.7 | 1052.6 ± 2.7 | 1056.1 ± 2.7 | 1055.5 ± 2.7
303.15 K, 101 kPa | 1039.6 ± 2.7 | 1045.8 ± 2.7 | 1048.8 ± 2.7 | 1048.1 ± 2.7
313.15 K, 101 kPa | 1033 ± 2.7 | 1038.6 ± 2.7 | 1041.3 ± 2.7 | 1040.5 ± 2.7
323.15 K, 101 kPa | 1026.1 ± 2.7 | 1031.2 ± 2.7 | 1033.6 ± 2.7 | 1032.6 ± 2.7
333.15 K, 101 kPa | 1018.9 ± 2.7 | 1023.6 ± 2.7 | 1025.6 ± 2.7 | 1024.6 ± 2.7
343.15 K, 101 kPa | 1011.4 ± 2.7 | 1015.6 ± 2.7 | 1017.4 ± 2.7 | 1016.4 ± 2.7
353.15 K, 101 kPa | 1003.5 ± 2.7 | 1007.4 ± 2.7 | 1009 ± 2.7 | 1007.9 ± 2.7
363.15 K, 101 kPa | 995.3 ± 2.7 | 998.9 ± 2.7 | 1000.4 ± 2.7 | 999.3 ± 2.7
373.15 K, 800 kPa | 987 ± 2.7 | 990.32 ± 2.7 | 991.79 ± 2.7 | 990.82 ± 2.7
383.15 K, 800 kPa | 978.16 ± 2.7 | 981.18 ± 2.7 | 982.65 ± 2.7 | 981.74 ± 2.7
393.15 K, 800 kPa | 968.93 ± 2.7 | 971.76 ± 2.7 | 973.23 ± 2.7 | 972.51 ± 2.7
403.15 K, 800 kPa | 959.28 ± 2.7 | 962.08 ± 2.7 | 963.68 ± 2.7 | 963.09 ± 2.7
413.15 K, 800 kPa | 949.4 ± 2.7 | 952.13 ± 2.7 | 953.72 ± 2.7 | 953.38 ± 2.7
423.15 K, 800 kPa | 939.06 ± 2.7 | 941.91 ± 2.7 | 943.63 ± 2.7 | 943.53 ± 2.7

OCCNCCO [diethanolamine] + O
mass density [kg/m3], [2]
Conditions | w1 = 0.5 | w1 = 0.6 | w1 = 0.7 | w1 = 0.8
293.15 K, 101 kPa | 1060.7 ± 3.5 | 1073.1 ± 3.5 | 1082.5 ± 3.4 | 1089.6 ± 3.4
303.15 K, 101 kPa | 1055.5 ± 3.5 | 1067.4 ± 3.5 | 1076.5 ± 3.4 | 1083.6 ± 3.4
313.15 K, 101 kPa | 1050 ± 3.5 | 1061.4 ± 3.5 | 1070.3 ± 3.4 | 1077.4 ± 3.4
323.15 K, 101 kPa | 1044.1 ± 3.5 | 1055.2 ± 3.5 | 1064 ± 3.4 | 1070.9 ± 3.4
333.15 K, 101 kPa | 1037.9 ± 3.5 | 1048.6 ± 3.5 | 1057.3 ± 3.4 | 1064.2 ± 3.4
343.15 K, 101 kPa | 1031.4 ± 3.5 | 1041.9 ± 3.5 | 1050.5 ± 3.4 | 1057.4 ± 3.4
353.15 K, 101 kPa | 1024.51 ± 3.5 | 1034.7 ± 3.5 | 1043.5 ± 3.4 | 1050.5 ± 3.4
363.15 K, 101 kPa | 1017.38 ± 3.5 | 1027.3 ± 3.5 | 1036.1 ± 3.4 | 1043.1 ± 3.4
373.15 K, 800 kPa | 1010.04 ± 3.5 | 1020 ± 3.5 | 1028.87 ± 3.4 | 1035.98 ± 3.4
383.15 K, 800 kPa | 1002.15 ± 3.5 | 1012.14 ± 3.5 | 1020.89 ± 3.4 | 1028.08 ± 3.4
393.15 K, 800 kPa | 994.94 ± 3.5 | 1003.87 ± 3.4 | 1012.73 ± 3.4 | 1020.14 ± 3.4
403.15 K, 800 kPa | 985.63 ± 3.5 | 995.45 ± 3.5 | 1004.18 ± 3.4 | 1012.1 ± 3.4
413.15 K, 800 kPa | 976.68 ± 3.5 | 986.55 ± 3.5 | 995.42 ± 3.4 | 1003.23 ± 3.4
423.15 K, 800 kPa | 967.44 ± 3.5 | 977.38 ± 3.5 | 986.45 ± 3.4 | 995.43 ± 3.4
